From patent US12215140B2, “Method of stabilizing protein contained in specimen and solution for stabilizing protein contained in specimen” (EIKEN KAGAKU KABUSHIKI KAISHA, priority 2018, dated 2025)

Tested on: hemoglobin-haptoglobin complex
Experiment: Stability of hemoglobin (as hemoglobin-haptoglobin complex) in samples preserved at 37° C. in preservation solution containing 1 unit/L haptoglobin, Hb measured by latex agglutination method (Examples 1 to 7)
Parameters: species or system human
Details: for Hb concentration / Recovery ratio with respect to Hb concentration after 0 days: 37° C.
Procedure, shortened: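 Hemoglobin (~300 µg/L) in 0.5% fecal suspension, or without feces, held at 37 °C for 0–21 days in 40 mmol/L HEPES pH 6.8, 0.1% BSA, 0.1% NaN3, 1 unit/L haptoglobin, with 0–100 mmol/L phenylboronic acid ± sugars. Hb quantified by latex agglutination with anti-human Hb rabbit polyclonal; recovery (%) relative to day 0.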

[1] = Feces 1, sugar 50 mmol/L + phenylboronic acid 15 mmol/L, 0 days
[2] = Feces 1, sugar 50 mmol/L + phenylboronic acid 15 mmol/L, 7 days
[3] = Feces 1, sugar 50 mmol/L + phenylboronic acid 15 mmol/L, 14 days
[4] = Feces 1, sugar 50 mmol/L + phenylboronic acid 15 mmol/L, 21 days
[5] = Feces 1, sugar 100 mmol/L + phenylboronic acid 15 mmol/L, 0 days
[6] = Feces 1, sugar 100 mmol/L + phenylboronic acid 15 mmol/L, 7 days
[7] = Feces 1, sugar 100 mmol/L + phenylboronic acid 15 mmol/L, 14 days
[8] = Feces 1, sugar 100 mmol/L + phenylboronic acid 15 mmol/L, 21 days
[9] = Feces 1, sugar 100 mmol/L, no phenylboronic acid, 0 days
[10] = Feces 1, sugar 100 mmol/L, no phenylboronic acid, 7 days
[11] = Feces 1, sugar 100 mmol/L, no phenylboronic acid, 14 days
[12] = Feces 1, sugar 100 mmol/L, no phenylboronic acid, 21 days
[13] = Feces 2, sugar 50 mmol/L + phenylboronic acid 15 mmol/L, 0 days
[14] = Feces 2, sugar 50 mmol/L + phenylboronic acid 15 mmol/L, 7 days
[15] = Feces 2, sugar 50 mmol/L + phenylboronic acid 15 mmol/L, 14 days
[16] = Feces 2, sugar 50 mmol/L + phenylboronic acid 15 mmol/L, 21 days
[17] = Feces 2, sugar 100 mmol/L + phenylboronic acid 15 mmol/L, 0 days
[18] = Feces 2, sugar 100 mmol/L + phenylboronic acid 15 mmol/L, 7 days
[19] = Feces 2, sugar 100 mmol/L + phenylboronic acid 15 mmol/L, 14 days
[20] = Feces 2, sugar 100 mmol/L + phenylboronic acid 15 mmol/L, 21 days
[21] = Feces 2, sugar 100 mmol/L, no phenylboronic acid, 0 days
[22] = Feces 2, sugar 100 mmol/L, no phenylboronic acid, 7 days
[23] = Feces 2, sugar 100 mmol/L, no phenylboronic acid, 14 days
[24] = Feces 2, sugar 100 mmol/L, no phenylboronic acid, 21 days
[25] = Feces 3, sugar 50 mmol/L + phenylboronic acid 15 mmol/L, 0 days
[26] = Feces 3, sugar 50 mmol/L + phenylboronic acid 15 mmol/L, 7 days
[27] = Feces 3, sugar 50 mmol/L + phenylboronic acid 15 mmol/L, 14 days
[28] = Feces 3, sugar 50 mmol/L + phenylboronic acid 15 mmol/L, 21 days
[29] = Feces 3, sugar 100 mmol/L + phenylboronic acid 15 mmol/L, 0 days
[30] = Feces 3, sugar 100 mmol/L + phenylboronic acid 15 mmol/L, 7 days
[31] = Feces 3, sugar 100 mmol/L + phenylboronic acid 15 mmol/L, 14 days
[32] = Feces 3, sugar 100 mmol/L + phenylboronic acid 15 mmol/L, 21 days
[33] = Feces 3, sugar 100 mmol/L, no phenylboronic acid, 0 days
[34] = Feces 3, sugar 100 mmol/L, no phenylboronic acid, 7 days
[35] = Feces 3, sugar 100 mmol/L, no phenylboronic acid, 14 days
[36] = Feces 3, sugar 100 mmol/L, no phenylboronic acid, 21 days
[37] = No feces, sugar 50 mmol/L + phenylboronic acid 15 mmol/L, 0 days
[38] = No feces, sugar 50 mmol/L + phenylboronic acid 15 mmol/L, 7 days
[39] = No feces, sugar 50 mmol/L + phenylboronic acid 15 mmol/L, 14 days
[40] = No feces, sugar 50 mmol/L + phenylboronic acid 15 mmol/L, 21 days
[41] = No feces, sugar 100 mmol/L + phenylboronic acid 15 mmol/L, 0 days
[42] = No feces, sugar 100 mmol/L + phenylboronic acid 15 mmol/L, 7 days
[43] = No feces, sugar 100 mmol/L + phenylboronic acid 15 mmol/L, 14 days
[44] = No feces, sugar 100 mmol/L + phenylboronic acid 15 mmol/L, 21 days
[45] = No feces, sugar 100 mmol/L, no phenylboronic acid, 0 days
[46] = No feces, sugar 100 mmol/L, no phenylboronic acid, 7 days
[47] = No feces, sugar 100 mmol/L, no phenylboronic acid, 14 days
[48] = No feces, sugar 100 mmol/L, no phenylboronic acid, 21 days

OC[C@H]1O[C@H](O[C@H]2O[C@H](CO)[C@@H](O)[C@H](O)[C@H]2O)[C@H](O)[C@@H](O)[C@@H]1O [Trehalose, trehalose] was tested, and the Hb concentration [1] was 299 µg/L, the “Recovery ratio with respect to Hb concentration after 0 days” value (shortened to “Recovery ratio … after 0 days”) [1] was 100% and the Hb concentration [2] was 261 µg/L. For the same compound, the “Recovery ratio … after 0 days” value [2] was 87%, the Hb concentration [3] was 247 µg/L and the “Recovery ratio … after 0 days” value [3] was 83%. For the same compound, the Hb concentration [4] was 241 µg/L, the “Recovery ratio … after 0 days” value [4] was 81% and the Hb concentration [5] was 291 µg/L. For the same compound, the “Recovery ratio … after 0 days” value [5] was 100%, the Hb concentration [6] was 249 µg/L and the “Recovery ratio … after 0 days” value [6] was 86%. For the same compound, the Hb concentration [7] was 238 µg/L, the “Recovery ratio … after 0 days” value [7] was 82% and the Hb concentration [8] was 230 µg/L. For the same compound, the “Recovery ratio … after 0 days” value [8] was 79%, the Hb concentration [9] was 266 µg/L and the “Recovery ratio … after 0 days” value [9] was 100%. The Hb concentration [10] was 121 µg/L, the “Recovery ratio … after 0 days” value [10] was 45% and the Hb concentration [11] was 80 µg/L. The “Recovery ratio … after 0 days” value [11] was 30%, the Hb concentration [12] was 44 µg/L and the “Recovery ratio … after 0 days” value [12] was 17%. The Hb concentration [13] was 284 µg/L, the “Recovery ratio … after 0 days” value [13] was 100% and the Hb concentration [14] was 257 µg/L. For the same compound, the “Recovery ratio … after 0 days” value [14] was 90%, the Hb concentration [15] was 223 µg/L and the “Recovery ratio … after 0 days” value [15] was 79%. For the same compound, the Hb concentration [16] was 201 µg/L, the “Recovery ratio … after 0 days” value [16] was 71% and the Hb concentration [17] was 269 µg/L. The “Recovery ratio … after 0 days” value [17] was 100%, the Hb concentration [18] was 251 µg/L and the “Recovery ratio … after 0 days” value [18] was 93%. For the same compound, the Hb concentration [19] was 227 µg/L, the “Recovery ratio … after 0 days” value [19] was 84% and the Hb concentration [20] was 206 µg/L. The “Recovery ratio … after 0 days” value [20] was 77%, the Hb concentration [21] was 264 µg/L and the “Recovery ratio … after 0 days” value [21] was 100%. For the same compound, the Hb concentration [22] was 106 µg/L, the “Recovery ratio … after 0 days” value [22] was 40% and the Hb concentration [23] was 61 µg/L. The “Recovery ratio … after 0 days” value [23] was 23%, the Hb concentration [24] was 41 µg/L and the “Recovery ratio … after 0 days” value [24] was 16%. For the same compound, the Hb concentration [25] was 282 µg/L, the “Recovery ratio … after 0 days” value [25] was 100% and the Hb concentration [26] was 221 µg/L. The “Recovery ratio … after 0 days” value [26] was 78%, the Hb concentration [27] was 197 µg/L and the “Recovery ratio … after 0 days” value [27] was 70%. For the same compound, the Hb concentration [28] was 178 µg/L, the “Recovery ratio … after 0 days” value [28] was 63% and the Hb concentration [29] was 281 µg/L. The “Recovery ratio … after 0 days” value [29] was 100%, the Hb concentration [30] was 213 µg/L and the “Recovery ratio … after 0 days” value [30] was 76%. For the same compound, the Hb concentration [31] was 192 µg/L, the “Recovery ratio … after 0 days” value [31] was 68% and the Hb concentration [32] was 179 µg/L. The “Recovery ratio … after 0 days” value [32] was 64%, the Hb concentration [33] was 267 µg/L and the “Recovery ratio … after 0 days” value [33] was 100%. The Hb concentration [34] was 91 µg/L, the “Recovery ratio … after 0 days” value [34] was 34% and the Hb concentration [35] was 56 µg/L. For the same compound, the “Recovery ratio … after 0 days” value [35] was 21%, the Hb concentration [36] was 47 µg/L and the “Recovery ratio … after 0 days” value [36] was 18%. For the same compound, the Hb concentration [37] was 268 µg/L, the “Recovery ratio … after 0 days” value [37] was 100% and the Hb concentration [38] was 253 µg/L. The “Recovery ratio … after 0 days” value [38] was 94%, the Hb concentration [39] was 255 µg/L and the “Recovery ratio … after 0 days” value [39] was 95%. For the same compound, the Hb concentration [40] was 257 µg/L, the “Recovery ratio … after 0 days” value [40] was 96% and the Hb concentration [41] was 269 µg/L. For the same compound, the “Recovery ratio … after 0 days” value [41] was 100%, the Hb concentration [42] was 248 µg/L and the “Recovery ratio … after 0 days” value [42] was 92%. For the same compound, the Hb concentration [43] was 251 µg/L, the “Recovery ratio … after 0 days” value [43] was 93% and the Hb concentration [44] was 251 µg/L. The “Recovery ratio … after 0 days” value [44] was 93%, the Hb concentration [45] was 243 µg/L and the “Recovery ratio … after 0 days” value [45] was 100%. For the same compound, the Hb concentration [46] was 229 µg/L, the “Recovery ratio … after 0 days” value [46] was 94% and the Hb concentration [47] was 225 µg/L. For the same compound, the “Recovery ratio … after 0 days” value [47] was 93%, the Hb concentration [48] was 222 µg/L and the “Recovery ratio … after 0 days” value [48] was 91%. For the same compound, the “recovery ratio of hemoglobin in the samples containing fecal specimens” value (sugar 100 mmol/L, preservation solutions containing no phenylboronic acid) was “does not improve” and the recovery ratios (sugar further added to phenylboronic acid 15 mmol/L, Feces 3) was “not improved”.
